The target in data set [1] is T1, Bifunctional epoxide hydrolase 2 (Mus musculus, UniProt P34914).
T1 sequence (P34914 whole entry): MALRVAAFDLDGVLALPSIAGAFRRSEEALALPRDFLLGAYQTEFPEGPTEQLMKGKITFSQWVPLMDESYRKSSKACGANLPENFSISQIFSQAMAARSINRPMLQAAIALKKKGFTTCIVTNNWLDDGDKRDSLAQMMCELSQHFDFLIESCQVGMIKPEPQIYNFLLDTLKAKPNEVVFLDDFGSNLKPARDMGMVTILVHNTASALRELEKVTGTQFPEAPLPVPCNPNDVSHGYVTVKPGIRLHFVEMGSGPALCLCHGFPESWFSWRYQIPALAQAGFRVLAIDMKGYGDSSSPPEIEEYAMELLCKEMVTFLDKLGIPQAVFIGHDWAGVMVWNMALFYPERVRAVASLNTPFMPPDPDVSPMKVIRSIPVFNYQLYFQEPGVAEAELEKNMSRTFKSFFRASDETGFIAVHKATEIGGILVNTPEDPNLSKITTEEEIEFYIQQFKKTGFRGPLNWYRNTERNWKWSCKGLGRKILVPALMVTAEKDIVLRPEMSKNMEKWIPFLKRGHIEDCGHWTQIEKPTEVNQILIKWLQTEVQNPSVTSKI
The data set can be described thus: Inhibition of C57BL/6J mouse cortex sEH using 14,15-EET as substrate preincubated for 15 mins followed by substrate addition measured after 2 hrs by UPLC-MS/MS analysis.

For data set [2], the species on record is Mus musculus. Description: animal or person. The following applies: BALB/c, 2 h, read-out: INH.
Description: Anti-inflammatory activity in BALB/c mouse model of Carrageenan-induced paw edema assessed as inhibition of edema at 5 mg/kg, ip measured after 2 hrs relative to control
The species entered for data set [3] is Mus musculus. Description: animal or person. To be noted: BALB/c, 3 h, read-out: INH.
Description: Anti-inflammatory activity in BALB/c mouse model of Carrageenan-induced paw edema assessed as inhibition of edema at 5 mg/kg, ip measured after 3 hrs relative to control
For data set [4], the species on record is Mus musculus. The data set can be described thus: animal or person. To be noted: BALB/c, 4 h, read-out: INH.
Data set [5] is filed under the species Mus musculus. The data set can be described thus: animal or person. To be noted: BALB/c, 6 h, read-out: INH.
Description: Anti-inflammatory activity in BALB/c mouse model of Carrageenan-induced paw edema assessed as inhibition of edema at 5 mg/kg, ip measured upto 6 hrs relative to control
Data set [6] is described as follows: Cytotoxicity against human HepG2 cells incubated overnight by CCK8 assay.
Data set [7] can be described thus: Cytotoxicity against HEK293T cells incubated overnight by CCK8 assay. The following applies: human.

For `CC1(C)[C@@H](O)CC[C@]2(C)[C@H]3C(=O)C=C4[C@H]5C[C@@](C)(CNC(=O)NCc6ccc(S(C)(=O)=O)cc6)CC[C@]5(C)CC[C@@]4(C)[C@]3(C)CC[C@@H]12`, in data set [1], the half-inhibitory concentration (IC50) was found to be 9.7 nM.
`CC1(C)C(=O)CC[C@]2(C)[C@H]3C(=O)C=C4[C@H]5C[C@@](C)(CNC(=O)NCC6CCOCC6)CC[C@]5(C)CC[C@@]4(C)[C@]3(C)CC[C@@H]12` had a concentration for half-maximal inhibition (IC50) in data set [1] of 13.4 nM.
Still for that read-out and setting: under `CC1(C)[C@@H](O[C@H]2O[C@H](CO)[C@H](O)[C@H](O)[C@H]2O)CC[C@]2(C)[C@H]3C(=O)C=C4[C@H]5C[C@@](C)(CNC(=O)NCC6CCOCC6)CC[C@]5(C)CC[C@@]4(C)[C@]3(C)CC[C@@H]12` stands 310 nM; under `CC1(C)C(=O)CC[C@]2(C)[C@H]3C(=O)C=C4[C@@H]5C[C@@](C)(CNC(=O)NCC6CCOCC6)CC[C@]5(C)CC[C@@]4(C)[C@]3(C)CC[C@@H]12`, 18.9 nM.
`CC1(C)[C@@H](O[C@@H]2O[C@H](CO)[C@@H](O)[C@H](O)[C@H]2O)CC[C@]2(C)[C@H]3C(=O)C=C4[C@H]5C[C@@](C)(CNC(=O)NCC6CCOCC6)CC[C@]5(C)CC[C@@]4(C)[C@]3(C)CC[C@@H]12` had an IC50 in data set [1] of 301 nM. The inhibition in vivo at 5 mg/kg in the data set filed under Mus musculus [2] was found to be 43.2%; in the data set filed under Mus musculus [3], 42.4%.
With `CC1(C)[C@@H](O[C@H]2O[C@H](CO)[C@@H](O)[C@H](O)[C@H]2O)CC[C@]2(C)[C@H]3C(=O)C=C4[C@H]5C[C@@](C)(CNC(=O)NCc6ccc(OC(F)(F)F)cc6)CC[C@]5(C)CC[C@@]4(C)[C@]3(C)CC[C@@H]12`, the IC50 in data set [1] came to 5630 nM.
`CC1(C)[C@@H](O)CC[C@]2(C)[C@H]3C(=O)C=C4[C@@H]5C[C@@](C)(CNC(=O)NCC6CCOCC6)CC[C@]5(C)CC[C@@]4(C)[C@]3(C)CC[C@@H]12`: the midpoint of inhibition in data set [1], the IC50, lay at 7.7 nM. In addition, the inhibition in vivo at 20 mg/kg in the data set filed under Mus musculus [4] turned out to be 27.2%.
In data set [1], `CC1(C)[C@@H](O[C@H]2OC[C@@H](O)[C@H](O)[C@H]2O)CC[C@]2(C)[C@H]3C(=O)C=C4[C@H]5C[C@@](C)(CNC(=O)NCC6CCOCC6)CC[C@]5(C)CC[C@@]4(C)[C@]3(C)CC[C@@H]12` showed a concentration for half-maximal inhibition (IC50) of 450 nM.
On the same count and under the same terms, under `CCC(=O)N1CCC(CNC(=O)NC[C@@]2(C)CC[C@]3(C)CC[C@]4(C)C(=CC(=O)[C@@H]5[C@@]6(C)CC[C@H](O[C@H]7O[C@H](CO)[C@@H](O)[C@H](O)[C@@H]7O)C(C)(C)[C@@H]6CC[C@]54C)[C@H]3C2)CC1` stands 151 nM; under `CCC(=O)N1CCC(CNC(=O)NC[C@@]2(C)CC[C@]3(C)CC[C@]4(C)C(=CC(=O)[C@@H]5[C@@]6(C)CC[C@H](O[C@@H]7O[C@H](CO)[C@@H](O)[C@H](O)[C@@H]7O)C(C)(C)[C@@H]6CC[C@]54C)[C@H]3C2)CC1`, 152 nM; under `CC1(C)[C@@H](O[C@H]2O[C@H](CO)[C@@H](O)[C@H](O)[C@H]2O)CC[C@]2(C)[C@H]3C(=O)C=C4[C@@H]5C[C@@](C)(CNC(=O)NCC6CCC(OC(F)(F)F)CC6)CC[C@]5(C)CC[C@@]4(C)[C@]3(C)CC[C@@H]12` (stereo partly specified), 2270 nM.
In data set [1], `CC1(C)[C@@H](O[C@@H]2O[C@H](CO)[C@@H](O)[C@H](O)[C@H]2O)CC[C@]2(C)[C@H]3C(=O)C=C4[C@@H]5C[C@@](C)(CNC(=O)NCC6CCOCC6)CC[C@]5(C)CC[C@@]4(C)[C@]3(C)CC[C@@H]12` came in with an IC50 of 446 nM.
`CC(C)CNC(=O)NC[C@@]1(C)CC[C@]2(C)CC[C@]3(C)C(=CC(=O)[C@@H]4[C@@]5(C)CC[C@H](O)C(C)(C)[C@@H]5CC[C@]43C)[C@H]2C1` showed an IC50 in data set [1] of 13.4 nM.
Compound `CC1(C)[C@@H](O[C@H]2O[C@H](CO)[C@@H](O)[C@H](O)[C@H]2O)CC[C@]2(C)[C@H]3C(=O)C=C4[C@@H]5C[C@@](C)(CNC(=O)NCC6CCOCC6)CC[C@]5(C)CC[C@@]4(C)[C@]3(C)CC[C@@H]12` displayed an IC50 in data set [1] of 387 nM.
`CC1(C)[C@@H](O[C@@H]2O[C@H](CO)[C@@H](O)[C@H](O)[C@H]2O)CC[C@]2(C)[C@H]3C(=O)C=C4[C@@H]5C[C@@](C)(CNC(=O)NCC6CCC(OC(F)(F)F)CC6)CC[C@]5(C)CC[C@@]4(C)[C@]3(C)CC[C@@H]12` (stereo partly specified): 2120 nM corresponded to half-maximal inhibition in data set [1] (IC50).
`CC1(C)[C@@H](O)CC[C@]2(C)[C@H]3C(=O)C=C4[C@@H]5C[C@@](C)(CNC(=O)NCc6ccc(S(N)(=O)=O)cc6)CC[C@]5(C)CC[C@@]4(C)[C@]3(C)CC[C@@H]12` displayed an IC50 in data set [1] of 19.8 nM.
Same read-out and setting: in the case of `CC1(C)[C@@H](O[C@@H]2OC[C@@H](O)[C@@H](O)[C@@H]2O)CC[C@]2(C)[C@H]3C(=O)C=C4[C@H]5C[C@@](C)(CNC(=O)NCC6CCOCC6)CC[C@]5(C)CC[C@@]4(C)[C@]3(C)CC[C@@H]12` it was 114 nM.
In the case of `CC[C@H](C)C(=O)N1CCC(NC(=O)Nc2ccc(OC(F)(F)F)c(F)c2)CC1`, the inhibition in vivo at 5 mg/kg in the data set filed under Mus musculus [5] stood at 39.2%.
In data set [1], `CC1(C)[C@@H](O)CC[C@]2(C)[C@H]3C(=O)C=C4[C@@H]5C[C@@](C)(CNC(=O)NCc6ccc(OC(F)(F)F)cc6)CC[C@]5(C)CC[C@@]4(C)[C@]3(C)CC[C@@H]12` showed a half-maximal inhibitory concentration (IC50) of 8.6 nM.
Turning to `CCC(=O)N1CCC(CNC(=O)NC[C@@]2(C)CC[C@]3(C)CC[C@]4(C)C(=CC(=O)[C@@H]5[C@@]6(C)CC[C@H](O)C(C)(C)[C@@H]6CC[C@]54C)[C@@H]3C2)CC1`, the IC50 in data set [1] amounted to 5.6 nM.
Still for that read-out and setting: in the case of `CC1(C)[C@@H](O)CC[C@]2(C)[C@H]3C(=O)C=C4[C@H]5C[C@@](C)(CNC(=O)NCc6ccc(S(N)(=O)=O)cc6)CC[C@]5(C)CC[C@@]4(C)[C@]3(C)CC[C@@H]12` it was 13 nM; in that of `CC1(C)[C@@H](O[C@@H]2O[C@H](CO)[C@@H](O)[C@H](O)[C@@H]2O)CC[C@]2(C)[C@H]3C(=O)C=C4[C@H]5C[C@@](C)(CNC(=O)NCC6CCOCC6)CC[C@]5(C)CC[C@@]4(C)[C@]3(C)CC[C@@H]12`, 160 nM.
On the same count and under the same terms, under `CCC(=O)N1CCC(CNC(=O)NC[C@@]2(C)CC[C@]3(C)CC[C@]4(C)C(=CC(=O)[C@@H]5[C@@]6(C)CC[C@H](O)C(C)(C)[C@@H]6CC[C@]54C)[C@H]3C2)CC1` stands 9.9 nM.
Same read-out and setting: under `CC1(C)[C@@H](O)CC[C@]2(C)[C@H]3CC=C4[C@@H]5C[C@@](C)(CNC(=O)NCC6CCOCC6)CC[C@]5(C)CC[C@@]4(C)[C@]3(C)CC[C@@H]12` stands 10.3 nM.
Take `CC1(C)[C@@H](O[C@H]2O[C@H](CO)[C@@H](O)[C@H](O)[C@H]2O)CC[C@]2(C)[C@H]3C(=O)C=C4[C@H]5C[C@@](C)(CNC(=O)NCC6CCOCC6)CC[C@]5(C)CC[C@@]4(C)[C@]3(C)CC[C@@H]12`: in the data set filed under Mus musculus [5], the inhibition in vivo at 5 mg/kg was determined as 40.3%. For the same compound, in data set [1], the concentration for half-maximal inhibition (IC50) came to 442 nM.
As for `CC1(C)[C@@H](O[C@@H]2OC[C@@H](O)[C@H](O)[C@H]2O)CC[C@]2(C)[C@H]3C(=O)C=C4[C@H]5C[C@@](C)(CNC(=O)NCC6CCOCC6)CC[C@]5(C)CC[C@@]4(C)[C@]3(C)CC[C@@H]12`, in data set [1], it took 435 nM to reach half-maximal inhibition (IC50).
The same measure, in the same setting: in the case of `CC1(C)[C@@H](O)CC[C@]2(C)[C@H]3C(=O)C=C4[C@@H]5C[C@@](C)(CNC(=O)NCc6ccc(S(C)(=O)=O)cc6)CC[C@]5(C)CC[C@@]4(C)[C@]3(C)CC[C@@H]12` it was 15.9 nM.
Still for that read-out and setting: in the case of `CC1(C)[C@@H](O)CC[C@]2(C)[C@H]3C(=O)C=C4[C@H]5C[C@@](C)(CNC(=O)NCc6ccc(OC(F)(F)F)cc6)CC[C@]5(C)CC[C@@]4(C)[C@]3(C)CC[C@@H]12` it was 16.9 nM; in that of `CC1(C)[C@@H](O[C@@H]2O[C@H](CO)[C@@H](O)[C@H](O)[C@H]2O)CC[C@]2(C)[C@H]3C(=O)C=C4[C@H]5C[C@@](C)(CNC(=O)NCc6ccc(OC(F)(F)F)cc6)CC[C@]5(C)CC[C@@]4(C)[C@]3(C)CC[C@@H]12`, 3720 nM; in that of `CCC(=O)N1CCC(CNC(=O)NC[C@@]2(C)CC[C@]3(C)CC[C@]4(C)C(=CC(=O)[C@@H]5[C@@]6(C)CC[C@H](O[C@@H]7O[C@H](CO)[C@@H](O)[C@H](O)[C@@H]7O)C(C)(C)[C@@H]6CC[C@]54C)[C@@H]3C2)CC1`, 174 nM.
The same measure, in the same setting: under `CC1(C)[C@@H](O[C@@H]2O[C@H](CO)[C@H](O)[C@H](O)[C@H]2O)CC[C@]2(C)[C@H]3C(=O)C=C4[C@H]5C[C@@](C)(CNC(=O)NCC6CCOCC6)CC[C@]5(C)CC[C@@]4(C)[C@]3(C)CC[C@@H]12` stands 542 nM.
Turning to `CC1(C)[C@@H](O)CC[C@]2(C)[C@H]3C(=O)C=C4[C@H]5C[C@@](C)(CNC(=O)NCC6CCOCC6)CC[C@]5(C)CC[C@@]4(C)[C@]3(C)CC[C@@H]12`, the IC50 in data set [6] is over 50000 nM; in data set [1], 5.2 nM; in data set [7], over 50000 nM. In the data set listed under Mus musculus [4], the inhibition in vivo at 20 mg/kg turned out to be 28.4%.
As for `CC(C)CNC(=O)NC[C@@]1(C)CC[C@]2(C)CC[C@]3(C)C(=CC[C@@H]4[C@@]5(C)CC[C@H](O)C(C)(C)[C@@H]5CC[C@]43C)[C@@H]2C1`, 6.6 nM corresponded to half-maximal inhibition in data set [1] (IC50).
Still for that read-out and setting: in the case of `CC(C)CNC(=O)NC[C@@]1(C)CC[C@]2(C)CC[C@]3(C)C(=CC(=O)[C@@H]4[C@@]5(C)CC[C@H](O)C(C)(C)[C@@H]5CC[C@]43C)[C@@H]2C1` it was 20.5 nM.

The values are drawn from ChEMBL document CHEMBL6092185, “Discovery of glycosidated glycyrrhetinic acid derivatives: Natural product-based soluble epoxide hydrolase inhibitors” (Eur J Med Chem, 2024).
